Patent US8153773B2, “Synthesis and use of anti-reverse phosphorothioate analogs of the messenger RNA cap” (Board of Supervisors of Louisiana State University and …, priority 2007, dated 2012)

Experiments:
murine eIF4E (28-217) = target: T1, murine eIF4E (28-217) (Mus musculus, UniProt P63073); experiment: Binding affinities for eIF4E by fluorescence quenching; details: murine eIF4E (28-217); for KAS: equilibrium association constant, fluorescence quenching; for ΔG°: binding free energy calculated from KAS
T1 construct: (28-217) to phosphorothioate cap analogs, as determined
Procedure: Binding affinities of S analogs for murine eIF4E were determined by fluorescence quenching. Fluorescence titration measurements were carried out on an LS-50B spectrofluorometer (Perkin Elmer Co.) in 50 mM HEPES/KOH (pH 7.2), 100 mM KCl, 0.5 mM EDTA, 1 mM DTT at 20.0±0.2° C. Aliquots of 1 μl increasing concentration of cap analogue solutions were added to 1.4 ml of […] solutions. Fluorescence intensities (excitation at 280 nm with 2.5 nm bandwidth and detection at 337 nm with 4 nm bandwidth and 290 nm cut-off filter) were corrected taking into account sample dilution and the inner filter effect. Equilibrium association constants (KAS) were determined by fitting the theoretical dependence of the fluorescence intensity on the total concentration of cap analogue to the experimental data points according to equation described previously (See A. Niedzwiecka et al., “Biophysical studies of eIF4E cap-binding protein: recognition of mRNA 5′ cap structure and synthetic fragments of eIF4G and 4E-BP1 proteins,” J. Mol. Biol., vol. 319, pp. 615-635 (2002)). The concentration of protein was fitted as a free parameter of equilibrium equation showing amount of “active” protein. The final KAS was calculated as a weighted average of three to ten independent titrations, with the weights taken as the reciprocals of the numerical standard deviations squared. Numerical nonlinear least-squares regression analysis was performed using ORGIN 6.0 (Microcal Software Inc., USA). The Gibbs free energy of binding was calculated from the KAS value according to the standard equation ΔG°=−RTlnKAS.

hDcp2 = hDcp2 (Homo sapiens, UniProt Q8IU60); experiment: In vitro RNA decapping assay with recombinant hDcp2; assay type: biochemical; details: capped 32P-labeled short RNA, recombinant hDcp2, anion exchange HPLC (FIG. 6)
Procedure: Dcp2 activity was measured with capped 48-nt oligonucleotides as substrates, a truncated form of luciferase mRNA (48 nucleotides). GST-hDcp2 was expressed in Escherichia coli and purified as described by Z. Wang et al., “The hDcp2 protein is a mammalian mRNA decapping enzyme,” Proc. Natl. Acad. Sci. U.S.A., vol. 99, pp. 12663-12668 (2002). Capped oligonucleotides were first subjected to digestion with GST-hDcp2 at 37° C. for 2 h in decapping buffer (10 mM Tris-HCl, pH 7.5, 100 mM potassium acetate, 2 mM magnesium acetate, 0.5 mM MnCl2, 2 mM dithiothreitol, and 0.1 mM spermine). See C. Piccirillo et al., “Functional characterization of the mammalian mRNA decapping enzyme hDcp2,” RNA, vol. 9, pp. 1138-1147 (2003). The reaction mixture was then extracted once with an equal volume of phenol and twice with chloroform, and RNA was precipitated with ethanol. Products of the decapping reaction were further digested with a cocktail of ribonucleases (RiboShredder; Epicentre) at 37° C. for 1 h. The products were resolved by anion-exchange HPLC on a 4.6×250-mm Partisil 10SAX/25 column (Whatman). The gradient consisted of water for 1 min, a linear gradient to 112 mM KH2PO4, pH 4.5, for 20 min, a linear gradient of 112-450 mM KH2PO4 for 15 min, a linear gradient of 450 mM to 1.5 M KH2PO4 for 15 min, and isocratic elution at 1.5 M of KH2PO4 for 9 min, all at a flow rate 1 ml/min.
We tested oligonucleotides capped with either of S-ARCAs for hydrolysis by recombinant hDcp2 to test whether mRNA capped with the various diastereomers of m2^7,2′-OGpppsG and m2^7,2′-OGppspG would differ in their sensitivity to cleavage by Dcp1/Dcp2. See generally Z. Wang et al., “The hDcp2 protein is a mammalian mRNA decapping enzyme,” Proc. Natl. Acad. Sci. U.S.A., vol. 99, pp. 12663-12668 (2002), and Z. Wang et al., “An mRNA Stability Complex Functions with Poly(A)-Binding Protein To Stabilize mRNA In Vitro”, Mol. Cell. Biol., vol. 19, pp. 4552-4560 (1999). Cap analogs used were initially unlabeled, so to follow the products of the digestion reaction we synthesized capped oligonucleotides in the presence of [α-^32P]GTP and a DNA template in which G was the first ribonucleotide specified after the promoter. The oligonucleotides capped with either of the S-ARCAs were subjected to Dcp2 digestion in vitro, after which the products were further digested with a cocktail of ribonucleases (RiboShredder from Epicenter). Any nucleotide on the 5′ side of a G residue acquired a ^32P-labeled 3′-phosphate group after ribonuclease digestion by nearest-neighbor transfer. Anion exchange chromatography was then used to resolve the labeled 3′-nucleoside monophosphates (3′-NMP*), at internal positions in the RNA, from labeled 5′-terminal products (FIG. 6). The latter comprise p3 Gp* derived from uncapped transcripts and m2^7,2′-OGp3 Gp* (when m2^7,2′-OGp3G was used), or pGp* resulting from capped RNA resistant or nonresistant to enzymatic cleavage, respectively. All cap analogs used were ARCAs, which ensured that they were incorporated into RNA exclusively in the correct orientation. This further guaranteed that only one 5′-terminal product (m2^7,2′-OGp3 Gp*) was observed upon ribonuclease treatment. Uncapped RNA is not a substrate for Dcp2, which explains why p3 Gp* product was observed after Dcp2 digestion.
See E. Grudzien et al., “Differential inhibition of mRNA degradation pathways by novel cap analogs,” J. Biol. Chem., vol. 281, pp. 1857-1867 (2006).

DcpS [1] = target: T2, DcpS (Homo sapiens, UniProt Q96C86); experiment: Enzymatic hydrolysis by human DcpS; assay type: biochemical; set-up: key: the analogs assigned as resistant remained completely undigested under the applied conditions; the analogs assigned as hydrolyzed were hydrolyzed by DcpS with efficiency comparable to the respective unmodified parent compound; details: conditions giving complete degradation of unmodified parent within 40-90 min, RP HPLC
T2 sequence (Q96C86 1-337): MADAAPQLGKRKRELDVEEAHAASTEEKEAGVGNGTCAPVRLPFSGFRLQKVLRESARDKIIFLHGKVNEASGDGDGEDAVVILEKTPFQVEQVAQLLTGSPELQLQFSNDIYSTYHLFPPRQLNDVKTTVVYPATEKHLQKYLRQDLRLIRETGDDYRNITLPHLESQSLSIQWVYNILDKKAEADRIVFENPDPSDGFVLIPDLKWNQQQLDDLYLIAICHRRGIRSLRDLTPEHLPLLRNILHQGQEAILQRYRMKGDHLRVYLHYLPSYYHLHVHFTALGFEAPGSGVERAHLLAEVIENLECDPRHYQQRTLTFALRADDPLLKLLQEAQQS
Procedure: (§1) Human and nematode DcpS were expressed in Escherichia coli according to the procedures described previously (L. S. Cohen et al., “Nematode m7 GpppG and m3(2,2,7)GpppG decapping: activities in Ascaris embryos and characterization of C. elegans scavenger DcpS,” RNA, vol. 10, pp. 1609-1624 (2004)). Both proteins were stored at −80° C. in 20 mM Tris buffer, pH 7.5, containing 50 mM KCl, 0.2 mM EDTA, 1 mM DTT, 0.5 mM PMSF, and 20% glycerol. An appropriate cap analog at 1 mM concentration was treated with 5.0 or 7.0 μl of DcpS (from human or C. elegans, respectively) in 500 μl of 50 mM TRIS buffer, pH=7.9, containing 20 mM of MgCl2 and 60 mM of (NH4)2SO4 at 37° C. for 60-90 min. Every 15-20 min a 100 μl sample was collected from the reaction mixture and deactivated by incubation in 90° C. for 3 min. Collected samples were analyzed without further treatment by analytical RP HPLC using a linear gradient of methanol in 0.1 M KH2PO4, pH=6.0, from 0-50% within 15 min and UV-detection at 260 nm.
(§2) The new series of S-analogs were subjected to in vitro enzymatic hydrolysis catalyzed by DcpS from both human and C. elegans sources. In all experiments, the corresponding unmodified cap analog was used as a positive control, i.e., m^7GpppG for non-ARCA S-analogs and m2^7,2′-OGpppG for S-ARCAs. The amount of DcpS enzyme was optimized to provide complete degradation of the control substrate within 40-90 min. The samples collected from reaction mixtures at various time intervals were analyzed by RP HPLC (as described in Materials and Methods).
(§3) In Table 4, cap analogs at 4 μM concentration were subjected to enzymatic digestion by DcpS in conditions leading to complete degradation of the unmodified parent compound (i.e. m^7GpppG for non-ARCA S-analogs and m2^7,2′-OGpppG for ARCAs) within 40-90 min. Samples collected from reaction mixtures at various time intervals were analysed by RP HPLC with UV detection at 260 nm as described in Materials and Methods. […] The result was unchanged even if the reaction time was extended to 24 h, various amounts of enzyme were used, and composition of the reaction buffer was modified.

DcpS [2] = target: T3, DcpS (Caenorhabditis elegans, UniProt G5EFS4); experiment: Enzymatic hydrolysis by C. elegans DcpS; assay type: biochemical; set-up: key: the analogs assigned as resistant remained completely undigested under the applied conditions; the analogs assigned as hydrolyzed were hydrolyzed by DcpS with efficiency comparable to the respective unmodified parent compound; details: conditions giving complete degradation of unmodified parent within 40-90 min, RP HPLC
T3 sequence (G5EFS4 1-311): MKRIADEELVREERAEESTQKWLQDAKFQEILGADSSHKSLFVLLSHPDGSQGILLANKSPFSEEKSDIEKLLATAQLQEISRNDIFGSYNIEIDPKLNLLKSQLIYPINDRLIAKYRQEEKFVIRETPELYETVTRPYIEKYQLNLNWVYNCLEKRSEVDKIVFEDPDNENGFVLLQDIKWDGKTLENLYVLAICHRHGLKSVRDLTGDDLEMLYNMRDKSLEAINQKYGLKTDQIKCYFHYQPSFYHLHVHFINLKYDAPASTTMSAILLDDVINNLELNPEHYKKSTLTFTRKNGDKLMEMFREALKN
Procedure: as §1, §2, §3

T1 sequence (P63073 28-217): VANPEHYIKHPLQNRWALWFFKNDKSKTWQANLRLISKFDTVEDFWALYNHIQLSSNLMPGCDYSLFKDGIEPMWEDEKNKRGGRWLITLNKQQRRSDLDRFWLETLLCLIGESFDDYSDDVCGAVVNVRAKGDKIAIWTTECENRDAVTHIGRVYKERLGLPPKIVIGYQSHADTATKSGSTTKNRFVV

Row | Compound | KAS (murine eIF4E (28-217)) | hydrolysis of capped oligonucleotide by hDcp2 (hDcp2) | Resistance to enzymatic hydrolysis by DcpS (human) (DcpS [1]) | Resistance to enzymatic hydrolysis by DcpS (from C. elegans) (DcpS [2]) | ΔG° (murine eIF4E (28-217))
1 | CO[C@@H]1[C@H](O)[C@@H](COP(=O)(O)OP(=O)([O-])OP(=O)(O)OP(=O)(O)OC[C@H]2O[C@@H](n3cnc4c(=O)[nH]c(N)nc43)[C@H](O)[C@@H]2O)O[C@H]1n1c[n+](C)c2c(O)nc(N)nc21 [m^7,2′-OGppppG, reference compound] | 99.8 ± 6.0 µM⁻¹ |  |  |  | 
2 | m2^7,2′-OGpppsG |  | no increase in stability toward hDcp2 |  |  | 
3 | m2^7,2′-OGpsppG |  | no increase in stability toward hDcp2 |  |  | 
4 | m^7GpppsG (D1) [Compound 1a] | 23.6 ± 0.8 µM⁻¹ |  | hydrolyzed | hydrolyzed | -9.88 ± 0.02 kcal/mol
5 | m^7GpppsG (D2) [Compound 1b] | 13.1 ± 0.8 µM⁻¹ |  | hydrolyzed | hydrolyzed | -9.54 ± 0.03 kcal/mol
6 | m^7GppspG (D1) [Compound 2a] | 45.0 ± 1.1 µM⁻¹ |  | hydrolyzed | hydrolyzed | -10.26 ± 0.01 kcal/mol
7 | m^7GppspG (D2) [Compound 2b] | 23.0 ± 0.4 µM⁻¹ |  | hydrolyzed | hydrolyzed | -9.87 kcal/mol
8 | m^7GpsppG (D1) [Compound 3a] |  |  | resistant | resistant | 
9 | m^7GpsppG (D2) [Compound 3b] |  |  | resistant | resistant | 
